Active and inactive are the calls of the source. No rule for the calls is given here.
Assay: Mycobacterium tuberculosis H37Rv growth inhibition, glycerol free medium, confirmatory screen (AID 504645);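 also: bacteria grown one week before the viability dye was added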
Conditions: M. tuberculosis H37Rv growth inhibition, glycerol-free medium; at 25 µM (top of the series)

Row | SMILES | inhibition
1 | Cc1c[nH]c(=S)[nH]c1=O | 3.09% (inactive)
2 | CN(C(=O)CSc1nc2ccccc2c(=O)[nH]1)C1CCCCC1 | 3.96% (inactive)
3 | CC1CCN(C(=O)CSc2nc3ccccc3c(=O)[nH]2)CC1 | -0.18% (inactive)
4 | Cc1cccc(N2CCN(C(=O)c3ccc(CNc4c(N5CCC(C)CC5)c(=O)c4=O)cc3)CC2C)c1 (stereo not given) | 4.48% (inactive)
5 | CCOC(=O)N1CCC(Nc2c(Nc3cccc(CC)c3)c(=O)c2=O)CC1 | 11.5% (inactive)
6 | CCSc1nc(C)c(C)c(=O)[nH]1 | 3.06% (inactive)
7 | CCSc1nc2ccccc2c(=O)[nH]1 | 4.69% (inactive)
8 | CC(NC(=O)CSc1nc2ccccc2c(=O)[nH]1)c1ccccc1 (stereo not given) | 1.63% (inactive)
9 | Cc1ccc(NC(=O)CSc2nc(N)cc(=O)[nH]2)cc1Cl | 10.7% (inactive)
10 | CCCc1cc(=O)[nH]c(SCC(=O)Nc2cc3c(cc2C(C)=O)OCO3)n1 | 9.03% (inactive)
11 | Oc1ccccc1/C=N/Nc1ccnc(SCc2ccccc2)n1 | 2.52% (inactive)
12 | COC(=O)C(Nc1nc(SCC(=O)NC2CCCCC2)nc2ccccc12)c1ccccc1 (stereo not given) | -2.65% (inactive)
13 | CCOc1ccc(NC(=O)c2ccc(CNc3c(N4CCCC4)c(=O)c3=O)cc2)cc1 | 7.47% (inactive)
14 | Cc1nc(SCC(N)=O)[nH]c(=O)c1C | 2.85% (inactive)
15 | Cc1nc(SCc2ccccc2Cl)[nH]c(=O)c1C | -3.47% (inactive)
16 | O=c1[nH]c(=S)[nH]c2ccccc12 | -4.53% (inactive)
17 | Cc1cc(C)cc(NC(=O)CSc2nc3c(c(=O)[nH]2)CN(Cc2ccc(F)cc2)CC3)c1 | -0.57% (inactive)
18 | Cc1ccc(NC(=O)CSc2nc(N)c(-c3ccccc3)c(=O)[nH]2)cc1Cl | 1.17% (inactive)
19 | O=C(NCC1COc2ccccc2O1)C1CCC(CNc2c(N3CCCCC3)c(=O)c2=O)CC1 (stereo not given) | 4.5% (inactive)
20 | Cc1[nH]c2ccccc2c1C(=O)COC(=O)c1ccc([N+](=O)[O-])s1 | 8.85% (inactive)

Reference: PubChem BioAssay AID504645 (Southern Research Specialized Biocontainment Screening …, 2011)
